Laboratory results from the NIST ThermoML archive (doi:10.1016/j.fluid.2018.05.033).

Columns and labels:
[1] = for mass density: 101.33 kPa, Liquid, Vibrating tube method; for Normal melting temperature: Crystal, Phase equilibration
[2] = refractive index (Na D-line) (dimensionless); settings: 101.33 kPa, Liquid, Standard Abbe refractometry
[3] = xn = mol fraction of the nth substance listed; settings: 101.3 kPa, Liquid, Vibrating tube method
[4] = refractive index (Na D-line) (dimensionless); xn = mol fraction of the nth substance listed; settings: 101.3 kPa, Liquid, Standard Abbe refractometry

O=C1CCCO1 [γ-butyrolactone]
298.15 K
Settings	mass density [kg/m3]	refractive index
[1]	1124.97	–
[2]	–	1.4349

Settings	Normal melting temperature [°C]
[1]	-41.87

O=C1OCCO1 [ethylene carbonate]
318.15 K
Settings	mass density [kg/m3]	refractive index
[1]	1315.7	–
[2]	–	1.4172

Settings	Normal melting temperature [°C]
[1]	37.41

O=S1OCCO1 [1,3,2-dioxathiolane, 2-oxide] + O=C1CCCO1
298.15 K
Settings	mass density, [3] [kg/m3]	refractive index, [4]
x2 = 0.0501	1417.36	1.4443
x2 = 0.1008	1401.19	1.4437
x2 = 0.2006	1369.54	1.4425
x2 = 0.2991	1338.59	1.4414
x2 = 0.4102	1303.97	1.4402
x2 = 0.4994	1276.38	1.4392
x2 = 0.5998	1245.54	1.4382
x2 = 0.701	1214.73	1.4373
x2 = 0.7995	1184.91	1.4365
x2 = 0.9002	1154.7	1.4356
x2 = 0.9495	1139.97	1.4353

O=S1OCCO1 [1,3,2-dioxathiolane, 2-oxide] + O=C1OCCO1
318.15 K
Settings	mass density, [3] [kg/m3]	refractive index, [4]
x2 = 0.0492	1403.48	1.4358
x2 = 0.0998	1399.66	1.435
x2 = 0.2011	1391.76	1.4333
x2 = 0.3	1383.61	1.4315
x2 = 0.4024	1374.81	1.4297
x2 = 0.5005	1366.04	1.4278
x2 = 0.5994	1356.86	1.4259
x2 = 0.6997	1347.14	1.4238
x2 = 0.8005	1337	1.4217
x2 = 0.8996	1326.62	1.4196
x2 = 0.9494	1321.21	1.4185

CCOC(=O)OC [ethyl methyl carbonate]
298.15 K
Settings	mass density [kg/m3]	refractive index
[1]	1006.88	–
[2]	–	1.3754

Settings	Normal melting temperature [°C]
[1]	-51.47

O=S1OCCO1 [1,3,2-dioxathiolane, 2-oxide] + COC(=O)OC
298.15 K
Settings	mass density, [3] [kg/m3]	refractive index, [4]
x2 = 0.0499	1412.39	1.4407
x2 = 0.0997	1392.6	1.4365
x2 = 0.2002	1353.25	1.4283
x2 = 0.2999	1314.96	1.4202
x2 = 0.4	1277.01	1.4123
x2 = 0.4997	1239.88	1.4044
x2 = 0.6004	1202.89	1.3965
x2 = 0.6998	1166.91	1.3889
x2 = 0.8009	1130.5	1.3811
x2 = 0.9002	1095.66	1.3737
x2 = 0.9505	1078.06	1.37

COC(=O)OC [dimethyl carbonate]
298.15 K
Settings	mass density [kg/m3]	refractive index
[1]	1060.87	–
[2]	–	1.3662

Settings	Normal melting temperature [°C]
[1]	4.37

O=S1OCCO1 [1,3,2-dioxathiolane, 2-oxide]
298.15 K
Settings	mass density [kg/m3]	refractive index
[1]	1432.17	–
[2]	–	1.4449

Settings	Normal melting temperature [°C]
[1]	-17.01

O=S1OCCO1 [1,3,2-dioxathiolane, 2-oxide] + CCOC(=O)OC
298.15 K
Settings	mass density, [3] [kg/m3]	refractive index, [4]
x2 = 0.0498	1404.65	1.4405
x2 = 0.0994	1378	1.4361
x2 = 0.1993	1326.76	1.4279
x2 = 0.2998	1278.43	1.42
x2 = 0.3996	1233.17	1.4127
x2 = 0.5008	1189.88	1.4056
x2 = 0.5995	1149.94	1.3991
x2 = 0.7001	1111.21	1.3927
x2 = 0.8002	1074.73	1.3867
x2 = 0.8995	1040.17	1.381
x2 = 0.9501	1023.08	1.3782
